Our source for the IC50 values is US20160046618A1, “Cyclopropyl Fused Thiazin-2-Amine Compounds as Beta-Secretase Inhibitors and Methods of Use” (AMGEN INC., priority 2014, published 2016).

Test [1] has as its target human recombinant BACE1 (Homo sapiens (Human), UniProt P56817). Briefly: In vitro enzymatic BACE1 FRET assay. It is filed as biochemical. The conditions noted are these: read-out: IC50 IP (μM) BACE1 enzyme. In short, it runs like this: (§1)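 Reactions were initiated by adding 50 nM of a peptide carrying fluorophore and quencher on opposite sides of the cleavage site and ran for one hour. Tris buffer then brought the pH to neutrality, ending the reaction, and fluorescence was measured (488 nm excitation, 590 nm emission).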

Test [2] concerns the target Recombinant Cat D (Homo sapiens (Human), UniProt P07339). The test is described as follows: In vitro enzymatic Cathepsin D (Cat D) FRET assay. It is filed as biochemical. The settings on record: read-out: IC50 IP (μM) CatD. The essentials:
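Cleavage of a 20 nM FRET peptide by CHO-derived Cat D over 1 h at pH 3.5 (citrate buffer with CHAPS, 10% DMSO final). Endpoint fluorescence is read after Tris quench.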

The test system of test [3] is Aβ40 in conditioned medium of cells stably expressing Amyloid Precursor Protein (APP). The test is described as follows: In vitro BACE-1 cell-based assay (Aβ40 sandwich ELISA). The settings on record: read-out: IC50 IP (μM) BACE1 cell. In short, it runs like this: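 Aβ40 in supernatants measured by time-resolved fluorescence sandwich ELISA, with pAb40 as capture and biotin-6E10 as detector antibody, each incubated at 4 °C.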

Test [4] addresses human recombinant BACE2 (Homo sapiens (Human), UniProt Q9Y5Z0). The test is described as follows: In vitro enzymatic BACE2 FRET assay. Type of test: biochemical. The conditions noted are these: read-out: IC50 IP (μM) BACE2 enzyme. The essentials: as §1

Like-named read-outs stand apart in the source and are kept apart here. Where only a bound is given, the exact number is not on record here.

human recombinant BACE1, sequence (P56817 46-501): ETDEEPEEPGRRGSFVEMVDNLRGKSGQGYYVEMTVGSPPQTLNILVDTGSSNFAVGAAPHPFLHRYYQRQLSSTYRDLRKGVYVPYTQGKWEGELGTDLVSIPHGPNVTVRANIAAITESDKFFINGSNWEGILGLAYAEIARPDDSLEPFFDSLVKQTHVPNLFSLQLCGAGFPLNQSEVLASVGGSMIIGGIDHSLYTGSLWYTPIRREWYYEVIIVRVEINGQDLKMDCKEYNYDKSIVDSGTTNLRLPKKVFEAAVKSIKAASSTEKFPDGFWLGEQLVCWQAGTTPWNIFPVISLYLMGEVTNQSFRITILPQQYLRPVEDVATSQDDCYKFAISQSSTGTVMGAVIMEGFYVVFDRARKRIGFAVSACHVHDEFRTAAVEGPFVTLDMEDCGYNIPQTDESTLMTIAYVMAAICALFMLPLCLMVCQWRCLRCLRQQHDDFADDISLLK
human recombinant BACE2, sequence (Q9Y5Z0 63-518): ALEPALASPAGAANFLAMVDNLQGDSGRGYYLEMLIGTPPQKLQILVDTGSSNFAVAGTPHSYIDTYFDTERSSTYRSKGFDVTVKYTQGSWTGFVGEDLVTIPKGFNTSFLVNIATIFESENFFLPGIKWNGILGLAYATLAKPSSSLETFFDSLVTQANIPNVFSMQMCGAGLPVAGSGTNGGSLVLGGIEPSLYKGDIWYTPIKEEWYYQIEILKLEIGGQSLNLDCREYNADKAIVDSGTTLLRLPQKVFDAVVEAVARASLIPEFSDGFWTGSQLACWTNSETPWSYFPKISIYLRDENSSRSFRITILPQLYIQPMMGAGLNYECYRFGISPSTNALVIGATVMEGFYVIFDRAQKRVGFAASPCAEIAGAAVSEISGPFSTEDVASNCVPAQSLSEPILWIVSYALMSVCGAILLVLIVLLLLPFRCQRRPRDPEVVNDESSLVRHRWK
Recombinant Cat D, sequence (P07339 65-412): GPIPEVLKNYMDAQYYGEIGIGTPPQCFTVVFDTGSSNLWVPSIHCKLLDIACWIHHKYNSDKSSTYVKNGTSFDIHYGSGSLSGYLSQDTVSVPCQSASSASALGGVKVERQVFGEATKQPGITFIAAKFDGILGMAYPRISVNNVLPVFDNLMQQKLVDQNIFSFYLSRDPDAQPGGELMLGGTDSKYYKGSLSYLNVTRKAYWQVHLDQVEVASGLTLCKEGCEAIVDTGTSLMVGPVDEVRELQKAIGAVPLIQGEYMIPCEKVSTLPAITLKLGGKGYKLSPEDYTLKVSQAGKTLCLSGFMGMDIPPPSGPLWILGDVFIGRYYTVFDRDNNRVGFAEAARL

In general, IC50 refers to the concentration needed to halve the response being measured. Regarding `Cc1cc(OCC(F)(F)F)cnc1C(=O)Nc1cc(F)c(F)c([C@@]2(C)N=C(N)S[C@@]3(C#N)C[C@H]32)c1` [Example 1015, N-(3-((1S,5S,6S)-3-amino-1-cyano-5-methyl-2-thia-4-azabicyclo[4.1.0]hept-3-en-5-yl)-4,5-difluorophenyl)-3-methyl-5-(2,2,2-trifluoroethoxy)-2-pyridinecarboxamide], the IC50 in test [1] is 0.00497 µM; in test [2], > 400 µM; in test [3], 0.00686 µM; in test [4], 0.185 µM.

Take `Cc1nc(OCc2ncco2)cnc1C(=O)Nc1ccc(F)c([C@@]2(C)N=C(N)S[C@@]3(CF)C[C@H]32)c1` [Example 837, N-(3-((1S,5S,6S)-3-amino-1-(fluoromethyl)-5-methyl-2-thia-4-azabicyclo[4.1.0]hept-3-en-5-yl)-4-fluorophenyl)-3-methyl-5-(1,3-oxazol-2-ylmethoxy)-2-pyrazinecarboxamide]: the IC50 in test [1] was 0.00253 µM; in test [2], 1070 µM; in test [3], 0.00325 µM; in test [4], 0.0259 µM.

Take `C=C(C)COc1cnc(C(=O)Nc2cc(F)c(F)c([C@@]3(C)N=C(N)S[C@@]4(COC)C[C@H]43)c2)cn1` [Example 1030, N-(3-((1S,5S,6S)-3-amino-1-(methoxymethyl)-5-methyl-2-thia-4-azabicyclo[4.1.0]hept-3-en-5-yl)-4,5-difluorophenyl)-5-((2-methyl-2-propen-1-yl)oxy)-2-pyrazinecarboxamide]: the IC50 came to 0.00213 µM in test [1], 243 µM in test [2], 0.0414 µM in test [3] and 0.072 µM in test [4].

For `COC[C@]12C[C@H]1[C@@](C)(c1cc(NC(=O)c3cnc(OCC(C)(C)C)cn3)cc(F)c1F)N=C(N)S2` [Example 1069, N-(3-((1S,5S,6S)-3-amino-1-(methoxymethyl)-5-methyl-2-thia-4-azabicyclo[4.1.0]hept-3-en-5-yl)-4,5-difluorophenyl)-5-(neopentyloxy)pyrazine-2-carboxamide], the IC50 is 0.0174 µM in test [1], 1060 µM in test [2], 0.214 µM in test [3] and 0.878 µM in test [4].

On to `C[C@]1(c2cc(Nc3ncnc4cc(C#N)cnc34)cc(F)c2F)N=C(N)S[C@@]2(CO)C[C@H]21` [Example 55, 4-((3-((1S,5S,6S)-3-amino-1-(hydroxymethyl)-5-methyl-2-thia-4-azabicyclo[4.1.0]hept-3-en-5-yl)-4,5-difluorophenyl)amino)pyrido[3,2-d]pyrimidine-7-carbonitrile], for which the IC50 in test [1] (BACE1 FRET enzyme assay) stood at 0.00399 µM; in test [2] (Cathepsin D FRET enzyme assay), 227 µM; in test [3] (BACE1 cell-based assay), 0.00457 µM; in test [4] (BACE2 FRET enzyme assay), 0.014 µM.

In the case of `C#CCOc1cnc2c(Nc3ccc(F)c([C@@]4(CF)N=C(N)S[C@@]5(c6cnco6)C[C@@H]45)c3)ncnc2c1` [Example 782, N-(3-((1S,5S,6S)-3-amino-5-(fluoromethyl)-1-(1,3-oxazol-5-yl)-2-thia-4-azabicyclo[4.1.0]hept-3-en-5-yl)-4-fluorophenyl)-7-(2-propyn-1-yloxy)pyrido[3,2-d]pyrimidin-4-amine], the IC50 amounted to 0.000577 µM in test [1], 792 µM in test [2], 0.0197 µM in test [3] and 0.0245 µM in test [4].

Take `C#CCOc1cnc(C(=O)Nc2ccc(F)c([C@@]3(C)N=C(N)S[C@@]4(C(F)F)C[C@@H]34)c2)c(C)n1` [Example 830, N-(3-((1S,5S,6S)-3-amino-1-(difluoromethyl)-5-methyl-2-thia-4-azabicyclo[4.1.0]hept-3-en-5-yl)-4-fluorophenyl)-3-methyl-5-(2-propyn-1-yloxy)-2-pyrazinecarboxamide]: the IC50 in test [1] worked out at 0.000566 µM; in test [2] it was 121 µM; in test [3], 0.00221 µM; in test [4], 0.0101 µM.

As for `CNC(=O)[C@]12C[C@H]1[C@@](C)(c1cc(NC(=O)c3cnc(OCC(F)(F)F)cn3)ccc1F)N=C(N)S2` [Example 973, (1S,5S,6S)-3-amino-5-(2-fluoro-5-(5-(2,2,2-trifluoroethoxy)pyrazine-2-carboxamido)phenyl)-N,5-dimethyl-2-thia-4-azabicyclo[4.1.0]hept-3-ene-1-carboxamide], the half-inhibitory concentration (IC50) in test [1] was determined as 0.000404 µM; in test [2] it was 1570 µM; in test [3], 0.00192 µM; in test [4], 0.0476 µM.

As to `C#C[C@H](C)Oc1cnc(C(=O)Nc2cc(F)c(F)c([C@@]3(C)N=C(N)S[C@@]4(COC)C[C@H]43)c2)cn1` [Example 1009, N-(3-((1S,5S,6S)-3-amino-1-(methoxymethyl)-5-methyl-2-thia-4-azabicyclo[4.1.0]hept-3-en-5-yl)-4,5-difluorophenyl)-5-(((1S)-1-methyl-2-propyn-1-yl)oxy)-2-pyrazinecarboxamide], the IC50 was found to be 0.000695 µM in test [1], 936 µM in test [2], 0.00254 µM in test [3] and 0.0436 µM in test [4].

Take `C#CCOc1cnc2c(Nc3cnc(F)c([C@@]4(C)N=C(N)S[C@@]5([C@H](O)C(F)(F)F)C[C@H]54)c3)ncnc2c1` [Example 665, (1R)-1-((1S,5S,6S)-3-amino-5-(2-fluoro-5-((7-(2-propyn-1-yloxy)pyrido[3,2-d]pyrimidin-4-yl)amino)-3-pyridinyl)-5-methyl-2-thia-4-azabicyclo[4.1.0]hept-3-en-1-yl)-2,2,2-trifluoroethanol]: the 50% inhibitory concentration (IC50) turned out to be 0.00165 µM in test [1], 1110 µM in test [2], 0.00737 µM in test [3] and 0.0383 µM in test [4].

As for `C[C@]1(c2cc(NC(=O)c3ccc(Cl)cn3)cc(F)c2F)N=C(N)S[C@@]2(S(C)(=O)=O)C[C@H]21` [Example 742, N-(3-((1R,5S,6S)-3-amino-5-methyl-1-(methylsulfonyl)-2-thia-4-azabicyclo[4.1.0]hept-3-en-5-yl)-4,5-difluorophenyl)-5-chloro-2-pyridinecarboxamide], the IC50 in test [1] was 0.000719 µM; in test [2], 846 µM; in test [3] it was 0.0149 µM; in test [4], < 0.00203 µM.

As for `C#C[C@H](C)Oc1cnc(C(=O)Nc2ccc(F)c([C@@]3(C)N=C(N)S[C@@]4(COC)C[C@H]43)c2)c(C)n1` [Example 621, N-(3-((1S,5S,6S)-3-amino-1-(methoxymethyl)-5-methyl-2-thia-4-azabicyclo[4.1.0]hept-3-en-5-yl)-4-fluorophenyl)-3-methyl-5-(((1S)-1-methyl-2-propyn-1-yl)oxy)-2-pyrazinecarboxamide], the IC50 in test [1] was found to be 0.0113 µM; in test [2], 710 µM; in test [3], 0.0197 µM; in test [4], 0.148 µM.

Regarding `C[C@]1(c2cc(NC(=O)c3cnc(OCC(F)(F)F)cn3)ccc2F)N=C(N)S[C@@]2(C(=O)NC3CC3)C[C@H]21` [Example 800, (1S,5S,6S)-3-amino-N-cyclopropyl-5-(2-fluoro-5-(((5-(2,2,2-trifluoroethoxy)-2-pyrazinyl)carbonyl)amino)phenyl)-5-methyl-2-thia-4-azabicyclo[4.1.0]hept-3-ene-1-carboxamide], the IC50 was 0.000711 µM in test [1], 293 µM in test [2], 0.00659 µM in test [3] and 0.0841 µM in test [4].
